{"source": "patent US20080193958A1", "about": "“Method for the High-Speed Detection and/or Measurement of a Lipase or Phospholipase Activity” (CENTRE NATIONAL DE LA RECHERCHE SCIENTIFIQUE, priority 2005, published 2008)", "key": {"[1]": {"biological_target": "T1, human pancreatic lipase (HPL) (Homo sapiens, UniProt P16233)", "T1 sequence (P16233 17-465)": "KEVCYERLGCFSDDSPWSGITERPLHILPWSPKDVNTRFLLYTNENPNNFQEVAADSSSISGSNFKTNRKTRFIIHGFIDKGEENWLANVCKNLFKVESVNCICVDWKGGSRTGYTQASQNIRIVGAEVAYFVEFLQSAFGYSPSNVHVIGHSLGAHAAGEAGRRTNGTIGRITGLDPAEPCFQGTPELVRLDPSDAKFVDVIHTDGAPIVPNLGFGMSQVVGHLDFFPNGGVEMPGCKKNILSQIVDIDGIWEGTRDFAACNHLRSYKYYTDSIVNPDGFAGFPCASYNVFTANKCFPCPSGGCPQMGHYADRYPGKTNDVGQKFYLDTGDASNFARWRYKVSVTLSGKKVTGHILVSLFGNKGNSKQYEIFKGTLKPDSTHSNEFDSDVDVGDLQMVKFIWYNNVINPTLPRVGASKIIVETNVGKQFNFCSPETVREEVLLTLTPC", "assay": "Inhibition of human pancreatic lipase by THL injected during lipolysis, coated microplate (method B)", "assay_type": "biochemical", "details": "THL 10 nM final injected during lipolysis, HPL 2 nM final", "experimental": "FIG. 4B corresponds to a different protocol (method B): after the injection of HPL (at a final concentration of 2 nM), THL is injected into the reaction medium (at a final concentration of 10 nM) during lipolysis. The microtitration plates, with “coating” of the lipid substrate, are prepared as has been described above. A solution constituted by Tris buffer and β-cyclodextrin (3 mg/ml) is added into the wells. The optical density at 270 nm is recorded as a function of time for 5 to 10 min (see FIGS. 4A and 4B). A solution of human pancreatic lipase (HPL), alone or pre-incubated with THL (inhibitor), is injected into the wells. The enzymatic activity is then recorded as a function of time by measurement of the OD at 272 nm (method A; FIG. 4A). The pre-incubation of HPL with THL, at a molar excess of 1 to 100 or of 1 to 50 for 10 min, reduces the initial lipase activity by 75% or 40% respectively (see FIG. 4A). The effect of THL on the lipase activity has also been measured by injecting THL during lipolysis (method B; FIG. 4B). The injection of THL (at a final concentration of 10 nM) reduces the activity of HPL by approximately 40%."}, "[2]": {"biological_target": "T1, human pancreatic lipase (HPL)", "assay": "Inhibition of human pancreatic lipase pre-incubated with THL, coated tung oil triglyceride microplate (method A)", "assay_type": "biochemical", "details": "OD at 272 nm", "experimental": "FIGS. 4A and 4B represent the inhibition kinetics of HPL (human pancreatic lipase) by THL (tetrahydrolipstatin). The microplate is prepared by “coating” with triglycerides (50 μg/well) extracted from tung oil which contains a high proportion of a-eleostearic acid. A solution (200 μl) of Tris buffer is added to the wells. The activity of the HPL alone, or pre-incubated with the THL, is measured by recording the optical density (method A; FIG. 4A). FIG. 4A represents the optical density (OD) at 272 nm as a function of time. The curve with the black circles corresponds to the lipase HPL alone; the curve with the black squares corresponds to the lipase HPL pre-incubated with THL in a ratio of 1:100 and the curve with the white circles corresponds to the lipase HPL pre-incubated with THL in a ratio of 1:50. The microtitration plates, with “coating” of the lipid substrate, are prepared as has been described above. A solution constituted by Tris buffer and β-cyclodextrin (3 mg/ml) is added into the wells. The optical density at 270 nm is recorded as a function of time for 5 to 10 min (see FIGS. 4A and 4B). A solution of human pancreatic lipase (HPL), alone or pre-incubated with THL (inhibitor), is injected into the wells. The enzymatic activity is then recorded as a function of time by measurement of the OD at 272 nm (method A; FIG. 4A). […]"}}}
{"smiles": "CCCCCCCCCCC[C@@H](C[C@@H]1OC(=O)[C@H]1CCCCCC)OC(=O)[C@H](CC(C)C)NC=O", "note": "[THL, Tetrahydrolipstatin]", "values": [{"measurement": "reduction of the activity of HPL", "setting": "[1]", "value": "approximately 40%"}, {"measurement": "reduction of the initial lipase activity", "setting": "[2]; HPL pre-incubated with THL at a molar excess of 1 to 50 for 10 min", "value": 40, "unit": "%"}, {"measurement": "reduction of the initial lipase activity", "setting": "[2]; HPL pre-incubated with THL at a molar excess of 1 to 100 for 10 min", "value": 75, "unit": "%"}]}
